In patent US9145385B2, “Crystalline salts of R)-3-[6-amino-pyridin-3-yl]-2-(1-cyclohexy1-1H-imidazol-4-yl)-propionic acid” (Sanofi, priority 2011, dated 2015):
One block for each compound: values may come before it.

Key:
[1] = Dynamic Vapor Sorption (DVS) moisture sorption/desorption isotherm at 25° C.; type: physicochemical
Description: Moisture sorption/desorption isotherms were recorded on a SPS11-10μ from Projekt Messtechnik (Ulm, Germany). One cycle was run at 25° C., in which the sample was first stepwise decreased to 0% RH and then the relative humidity was stepwise increased from 0 to 95% and the weight of the sample was measured. Typical total measurement times for both cycles were about 20 to 30 hours.
The measurement was performed as disclosed in Example 7 with (R)-3-[6-amino-pyridin-3-yl]-2-(1-cyclohexyl-1H-imidazol-4-yl)-propionic acid (free acid, amorphous) and the received data are shown in the following table 2.

[2] = Chemical stability under elevated temperature and humidity; type: physicochemical; details: result in words

hygroscopicity (absorption or adsorption of water molecules from the surrounding environment) ([1]; result in words): hygroscopic
SMILES: Nc1ccc(CC(C(=O)O)c2cn(C3CCCCC3)cn2)cn1 (stereo not shown) [3-[6-amino-pyridin-3-yl]-2-(1-cyclohexyl-1H-imidazol-4-yl)-propionic acid, reference compound]

chemical stability [2]: chemically not stable
enantiomeric purity on storage [2]: reduced within a short time
SMILES: Nc1ccc(C[C@@H](C(=O)O)c2cn(C3CCCCC3)cn2)cn1 [(R)-3-[6-amino-pyridin-3-yl]-2-(1-cyclohexyl-1H-imidazol-4-yl)-propionic acid]

desorption of water ([1]; DVS 25° C., at 0.2% RH, phase transition monohydrate to anhydrate): −4.4%
SMILES: Nc1ccc(C[C@@H](C(=O)[O-])c2cn(C3CCCCC3)cn2)cn1.[Na+] [(R)-3-[6-amino-pyridin-3-yl]-2-(1-cyclohexyl-1H-imidazol-4-yl)-propionic acid sodium salt monohydrate]
